Converted amounts (≈) assume the structure as drawn. Read-outs that look alike come from different tables or passages of the source.
Experiments:
[1] = tested on: M. mycetomatis genome strain MM55; assay: CLSI M38-A2 based in vitro susceptibility screening (XTT or resazurin), growth at fixed concentration; type: cell-based, Madurella mycetomatis; conditions: Madurella mycetomatis; for Percent fungal survival at 100 µM: replicate 2, M. mycetomatis MM55, read-out: Percentage survival at 100um, 100 uM A (second replicate column)
M. mycetomatis MM55 = assay: IC50 determination, 2-fold dilution series 16 to 0.03125 μM; type: cell-based, Madurella mycetomatis; conditions: for IC50 / IC90: Madurella mycetomatis
[2] = tested on: ten different M. mycetomatis isolates; assay: MIC / MIC50 determination (XTT) in ten M. mycetomatis isolates; type: cell-based, Madurella mycetomatis; conditions: Madurella mycetomatis
[3] = tested on: M. mycetomatis isolate MM55; assay: M. mycetomatis grain infection model in G. mellonella larvae, survival; type: in vivo, Galleria mellonella; set-up: In vivo efficacy, Larvae survival %: concentration or dose not given beside the values
[4] = mean of three, M. mycetomatis MM55, read-out: Percentage survival at 25um, 25 uM mean
[5] = replicate A, M. mycetomatis MM55, read-out: Percentage survival at 25um, 25 um A
[6] = replicate B, M. mycetomatis MM55, read-out: Percentage survival at 25um, 25 uM B
[7] = replicate C, M. mycetomatis MM55, read-out: Percentage survival at 25um, 25 uM C
[8] = mean of three, M. mycetomatis MM55, read-out: Percentage survival at 100um, 100 uM mean
[9] = replicate 1, M. mycetomatis MM55, read-out: Percentage survival at 100um, 100 uM A (first replicate column)
[10] = replicate 3, M. mycetomatis MM55, read-out: Percentage survival at 100um, 100 uM A (third replicate column)
[11] = MM55, Table 2, M. mycetomatis MM55, read-out: IC50
[12] = MM55, mean of replicates, read-out: IC50 mean
[13] = MM55, mean of replicates, read-out: IC90 mean
[14] = MM55, replicate 1, read-out: IC50 1 um
[15] = MM55, replicate 1, read-out: IC90 1 um
[16] = MM55, replicate 2, read-out: IC50 2 um
[17] = MM55, replicate 2, read-out: IC90 2 um
[18] = MM55, replicate 3, read-out: IC50 3 um
[19] = MM55, replicate 3, read-out: IC90 3 um
[20] = median MIC over ten M. mycetomatis isolates, no asterisk, read-out: MIC50
[21] = over the tested M. mycetomatis isolates, read-out: MIC50 mean
[22] = isolate CBS247.48, read-out: MIC CBS247.48
[23] = isolate MM14, read-out: MIC MM14
[24] = isolate MM45, read-out: MIC MM45
[25] = isolate MM55, read-out: MIC MM55
[26] = isolate ParijsAl1, read-out: MIC ParijsAl1
[27] = isolate Peru72012, read-out: MIC Peru72012
[28] = G. mellonella larvae infected with M. mycetomatis
[29] = mean, read-out: Percentage survival at 25um, 25 uM mean
[30] = replicate A, read-out: Percentage survival at 25um, 25 um A
[31] = replicate B, read-out: Percentage survival at 25um, 25 uM B
[32] = replicate C, read-out: Percentage survival at 25um, 25 uM C
[33] = mean, read-out: Percentage survival at 100um, 100 uM mean
[34] = replicate (first column), read-out: Percentage survival at 100um, 100 uM A
[35] = replicate (second column), read-out: Percentage survival at 100um, 100 uM A
[36] = replicate (third column), read-out: Percentage survival at 100um, 100 uM A
[37] = MM55, replicate 1, read-out: IC50 1
[38] = MM55, replicate 1, read-out: IC90 1
[39] = MM55, replicate 2, read-out: IC50 2
[40] = MM55, replicate 2, read-out: IC90 2
[41] = MM55, replicate 3, read-out: IC50 3
[42] = MM55, replicate 3, read-out: IC90 3
[43] = over the isolates tested, read-out: MIC50 mean

Compound | activity at 25 µM [1, 4] | activity at 25 µM [1, 5] | activity at 25 µM [1, 6] | activity at 25 µM [1, 7] | activity at 100 µM [1, 8] | activity at 100 µM [1, 9] | Percent fungal survival at 100 µM [1] | activity at 100 µM [1, 10] | IC50 (M. mycetomatis MM55; [11]) | MIC50 [2, 20] | MIC [2, 22] | MIC [2, 23] | MIC [2, 24] | MIC [2, 25] | MIC ([2]; isolate P1, read-out: MIC P1) | MIC [2, 26] | MIC [2, 27] | MIC ([2]; isolate So1, read-out: MIC So1) | MIC ([2]; isolate i1, read-out: MIC i1) | MIC ([2]; isolate i11, read-out: MIC i11) | also measured
CCC(C)(C)c1ccc(CC(C)CN2C[C@@H](C)O[C@@H](C)C2)cc1 (some centres unmarked) [MMV1634358, Amorolfine, reference compound] | 0.888% | -0.194% | 0.287% | 2.57% | 8.96% | 0.903% | 2.35% | 23.6% | 5720 nM | 4 µM (≈ 1.27 µg/mL) | 4 µM (≈ 1.27 µg/mL) | 4 µM (≈ 1.27 µg/mL) | 4 µM (≈ 1.27 µg/mL) | 2 µM (≈ 0.635 µg/mL) | > 16 µM | 0.25 µM (≈ 0.0794 µg/mL) | 16 µM (≈ 5.08 µg/mL) | 2 µM (≈ 0.635 µg/mL) | 2 µM (≈ 0.635 µg/mL) | 16 µM (≈ 5.08 µg/mL) | Drug static or cidal (M. mycetomatis MM55; M. mycetomatis): Static; IC50 (M. mycetomatis MM55; [12]): 5720 nM; IC90 (M. mycetomatis MM55; [13]): 10700 nM; IC50 (M. mycetomatis MM55; [14]): 2450 nM; IC90 (M. mycetomatis MM55; [15]): 4650 nM; IC50 (M. mycetomatis MM55; [16]): 11700 nM; IC90 (M. mycetomatis MM55; [17]): 22100 nM; IC50 (M. mycetomatis MM55; [18]): 3000 nM; IC90 (M. mycetomatis MM55; [19]): 5400 nM; MIC50 [2, 21]: 4 µM (≈ 1.27 µg/mL); In vivo efficacy, Enhanced survival compared to control? [3, 28]: no; In vivo efficacy, Larvae survival % [3, 28]: 11.1%
O[C@@](Cn1cnnn1)(c1ccc(F)cc1F)C(F)(F)c1ccc(-c2ccc(OCC(F)(F)F)cc2)cn1 [MMV1634386, Oteseconazole, reference compound] |  |  |  |  |  |  |  |  | 2660 nM | 1 µM (≈ 0.527 µg/mL) | 16 µM (≈ 8.44 µg/mL) | 1 µM (≈ 0.527 µg/mL) | 1 µM (≈ 0.527 µg/mL) | 4 µM (≈ 2.11 µg/mL) | 2 µM (≈ 1.05 µg/mL) | 2 µM (≈ 1.05 µg/mL) | 4 µM (≈ 2.11 µg/mL) | 1 µM (≈ 0.527 µg/mL) | 0.25 µM (≈ 0.132 µg/mL) | 8 µM (≈ 4.22 µg/mL) | activity at 25 µM [1, 29]: -1.26%; activity at 25 µM [1, 30]: -1.75%; activity at 25 µM [1, 31]: -2.55%; activity at 25 µM [1, 32]: 0.501%; activity at 100 µM [1, 33]: 7.07%; activity at 100 µM [1, 34]: -1.99%; activity at 100 µM [1, 35]: 9.06%; activity at 100 µM [1, 36]: 14.2%; Drug static or cidal (M. mycetomatis MM55): Cidal; IC50 (M. mycetomatis MM55; MM55, mean, read-out: IC50 mean): 2660 nM; IC90 (M. mycetomatis MM55; MM55, read-out: IC90 mean): 5170 nM; IC50 (M. mycetomatis MM55; [37]): 2150 nM; IC90 (M. mycetomatis MM55; [38]): 5000 nM; IC50 (M. mycetomatis MM55; [39]): 2780 nM; IC90 (M. mycetomatis MM55; [40]): 5000 nM; IC50 (M. mycetomatis MM55; [41]): 3060 nM; IC90 (M. mycetomatis MM55; [42]): 5500 nM; MIC50 [2, 43]: 1 µM (≈ 0.527 µg/mL); In vivo efficacy, Enhanced survival compared to control? ([3]; in vivo): no; In vivo efficacy, Larvae survival % ([3]; in vivo): 11.1%
O=C(/C(=C/c1ccc(Cl)cc1Cl)n1ccnc1)c1ccc(Cl)cc1 [MMV1634491] | 0.641% | -1.32% | 0.287% | 2.96% | 7.66% | -1.73% | 4.59% | 20.1% | 2810 nM | 1 µM (≈ 0.378 µg/mL) | 4 µM (≈ 1.51 µg/mL) | 4 µM (≈ 1.51 µg/mL) | 2 µM (≈ 0.755 µg/mL) | 4 µM (≈ 1.51 µg/mL) | 4 µM (≈ 1.51 µg/mL) | 4 µM (≈ 1.51 µg/mL) | 4 µM (≈ 1.51 µg/mL) | 4 µM (≈ 1.51 µg/mL) | 1 µM (≈ 0.378 µg/mL) | 4 µM (≈ 1.51 µg/mL) | Drug static or cidal (M. mycetomatis MM55; M. mycetomatis): Static; IC50 (M. mycetomatis MM55; [12]): 2810 nM; IC90 (M. mycetomatis MM55; [13]): 4700 nM; IC50 (M. mycetomatis MM55; [14]): 2220 nM; IC90 (M. mycetomatis MM55; [15]): 4360 nM; IC50 (M. mycetomatis MM55; [16]): 2880 nM; IC90 (M. mycetomatis MM55; [17]): 4780 nM; IC50 (M. mycetomatis MM55; [18]): 3340 nM; IC90 (M. mycetomatis MM55; [19]): 4950 nM; MIC50 [2, 21]: 4 µM (≈ 1.51 µg/mL); In vivo efficacy, Enhanced survival compared to control? [3, 28]: no; In vivo efficacy, Larvae survival % [3, 28]: 8.9%
Clc1cc(Cl)c2c(c1)CCc1ccccc1C2n1ccnc1 (centres unmarked) [MMV1634492, Eberconazole, reference compound] |  |  |  |  |  |  |  |  | 720 nM | 0.5 µM (≈ 0.165 µg/mL) | 2 µM (≈ 0.658 µg/mL) | 0.125 µM (≈ 0.0412 µg/mL) | 4 µM (≈ 1.32 µg/mL) | 0.5 µM (≈ 0.165 µg/mL) | 1 µM (≈ 0.329 µg/mL) | 0.125 µM (≈ 0.0412 µg/mL) | 0.5 µM (≈ 0.165 µg/mL) | 0.125 µM (≈ 0.0412 µg/mL) | 0.0625 µM (≈ 0.0206 µg/mL) | 1 µM (≈ 0.329 µg/mL) | activity at 25 µM [1, 29]: -1.12%; activity at 25 µM [1, 30]: -3.02%; activity at 25 µM [1, 31]: -4.98%; activity at 25 µM [1, 32]: 4.64%; activity at 100 µM [1, 33]: 3.3%; activity at 100 µM [1, 34]: -3.84%; activity at 100 µM [1, 35]: 6.56%; activity at 100 µM [1, 36]: 7.19%; Drug static or cidal (M. mycetomatis MM55): Cidal; IC90 (M. mycetomatis MM55; MM55, read-out: IC90 mean): 1290 nM; IC50 (M. mycetomatis MM55; [37]): 580 nM; IC90 (M. mycetomatis MM55; [38]): 1300 nM; IC50 (M. mycetomatis MM55; [39]): 780 nM; IC90 (M. mycetomatis MM55; [40]): 1210 nM; IC50 (M. mycetomatis MM55; [41]): 800 nM; IC90 (M. mycetomatis MM55; [42]): 1350 nM; MIC50 [2, 43]: 0.5 µM (≈ 0.165 µg/mL); Effect on larvae survival Day 4 (words) ([3]; 20 μM per larvae, vs infected control, day four): prolonged larvae survival; In vivo efficacy, Enhanced survival compared to control? ([3]; in vivo): no; In vivo efficacy, Larvae survival % ([3]; in vivo): 13.3%

Reference: article PMC8815882, “Screening the pandemic response box identified benzimidazole carbamates, Olorofim and ravuconazole as promising drug candidates for the treatment of eumycetoma” (PLoS Neglected Tropical Diseases, 2022)
